Reference: article PMC11420776 (RSC Advances, 2024)

Tests used:
CCRF-CEM (leukemia) = experiment: NCI 60-cell one-dose antiproliferative screen; format: cell-based, human; details: one dose 10 μM
RPMI-8226 (leukemia) = experiment: NCI 60-cell one-dose antiproliferative screen; format: cell-based, human; details: one dose 10 μM
[1] = tested on: A549/ATCC (NSC lung cancer); experiment: NCI 60-cell one-dose antiproliferative screen; format: cell-based, human; details: one dose 10 μM
EKVX (NSC lung cancer) = experiment: NCI 60-cell one-dose antiproliferative screen; format: cell-based, human; details: one dose 10 μM
HOP-62 (NSC lung cancer) = experiment: NCI 60-cell one-dose antiproliferative screen; format: cell-based, human; details: one dose 10 μM
HOP-92 (NSC lung cancer) = experiment: NCI 60-cell one-dose antiproliferative screen; format: cell-based, human; details: one dose 10 μM
[2] = tested on: NCI-H226 (NSC lung cancer); experiment: NCI 60-cell one-dose antiproliferative screen; format: cell-based, human; details: one dose 10 μM
[3] = tested on: NCI-H23 (NSC lung cancer); experiment: NCI 60-cell one-dose antiproliferative screen; format: cell-based, human; details: one dose 10 μM
[4] = tested on: NCI-H322M (NSC lung cancer); experiment: NCI 60-cell one-dose antiproliferative screen; format: cell-based, human; details: one dose 10 μM
[5] = tested on: NCI-H460 (NSC lung cancer); experiment: NCI 60-cell one-dose antiproliferative screen; format: cell-based, human; details: one dose 10 μM
[6] = tested on: NCI-H522 (NSC lung cancer); experiment: NCI 60-cell one-dose antiproliferative screen; format: cell-based, human; details: one dose 10 μM
COLO-205 (colon cancer) = experiment: NCI 60-cell one-dose antiproliferative screen; format: cell-based, human; details: one dose 10 μM
HCC-2998 (colon cancer) = experiment: NCI 60-cell one-dose antiproliferative screen; format: cell-based, human; details: one dose 10 μM
HCT-116 (colon cancer) = experiment: NCI 60-cell one-dose antiproliferative screen; format: cell-based, human; details: one dose 10 μM
HCT-15 (colon cancer) = experiment: NCI 60-cell one-dose antiproliferative screen; format: cell-based, human; details: one dose 10 μM
HT29 (colon cancer) = experiment: NCI 60-cell one-dose antiproliferative screen; format: cell-based, human; details: one dose 10 μM
KM12 (colon cancer) = experiment: NCI 60-cell one-dose antiproliferative screen; format: cell-based, human; details: one dose 10 μM
SW-620 (colon cancer) = experiment: NCI 60-cell one-dose antiproliferative screen; format: cell-based, human; details: one dose 10 μM
SF-268 (CNS cancer) = experiment: NCI 60-cell one-dose antiproliferative screen; format: cell-based, human; details: one dose 10 μM
SF-295 (CNS cancer) = experiment: NCI 60-cell one-dose antiproliferative screen; format: cell-based, human; details: one dose 10 μM
SF-539 (CNS cancer) = experiment: NCI 60-cell one-dose antiproliferative screen; format: cell-based, human; details: one dose 10 μM
SNB-19 (CNS cancer) = experiment: NCI 60-cell one-dose antiproliferative screen; format: cell-based, human; details: one dose 10 μM
U251 (CNS cancer) = experiment: NCI 60-cell one-dose antiproliferative screen; format: cell-based, human; details: one dose 10 μM
LOX IMIV (melanoma) = experiment: NCI 60-cell one-dose antiproliferative screen; format: cell-based, human; details: one dose 10 μM
MALME-3M (melanoma) = experiment: NCI 60-cell one-dose antiproliferative screen; format: cell-based, human; details: one dose 10 μM
M14 (melanoma) = experiment: NCI 60-cell one-dose antiproliferative screen; format: cell-based, human; details: one dose 10 μM
MDA-MB-435 (melanoma) = experiment: NCI 60-cell one-dose antiproliferative screen; format: cell-based, human; details: one dose 10 μM
SK-MEL-2 (melanoma) = experiment: NCI 60-cell one-dose antiproliferative screen; format: cell-based, human; details: one dose 10 μM
SK-MEL-28 (melanoma) = experiment: NCI 60-cell one-dose antiproliferative screen; format: cell-based, human; details: one dose 10 μM
UACC-257 (melanoma) = experiment: NCI 60-cell one-dose antiproliferative screen; format: cell-based, human; details: one dose 10 μM
UACC-62 (melanoma) = experiment: NCI 60-cell one-dose antiproliferative screen; format: cell-based, human; details: one dose 10 μM
IGROV1 (ovarian cancer) = experiment: NCI 60-cell one-dose antiproliferative screen; format: cell-based, human; details: one dose 10 μM
OVCAR-3 (ovarian cancer) = experiment: NCI 60-cell one-dose antiproliferative screen; format: cell-based, human; details: one dose 10 μM
OVCAR-4 (ovarian cancer) = experiment: NCI 60-cell one-dose antiproliferative screen; format: cell-based, human; details: one dose 10 μM
OVCAR-5 (ovarian cancer) = experiment: NCI 60-cell one-dose antiproliferative screen; format: cell-based, human; details: one dose 10 μM
OVCAR-8 (ovarian cancer) = experiment: NCI 60-cell one-dose antiproliferative screen; format: cell-based, human; details: one dose 10 μM
[7] = tested on: NCI/ADR-RES (ovarian cancer); experiment: NCI 60-cell one-dose antiproliferative screen; format: cell-based, human; details: one dose 10 μM
SK-OV-3 (ovarian cancer) = experiment: NCI 60-cell one-dose antiproliferative screen; format: cell-based, human; details: one dose 10 μM
786-0 (renal cancer) = experiment: NCI 60-cell one-dose antiproliferative screen; format: cell-based, human; details: one dose 10 μM
A498 (renal cancer) = experiment: NCI 60-cell one-dose antiproliferative screen; format: cell-based, human; details: one dose 10 μM
ACHN (renal cancer) = experiment: NCI 60-cell one-dose antiproliferative screen; format: cell-based, human; details: one dose 10 μM
CAKI-1 (renal cancer) = experiment: NCI 60-cell one-dose antiproliferative screen; format: cell-based, human; details: one dose 10 μM
RXF 393 (renal cancer) = experiment: NCI 60-cell one-dose antiproliferative screen; format: cell-based, human; details: one dose 10 μM
SN12C (renal cancer) = experiment: NCI 60-cell one-dose antiproliferative screen; format: cell-based, human; details: one dose 10 μM
TK-10 (renal cancer) = experiment: NCI 60-cell one-dose antiproliferative screen; format: cell-based, human; details: one dose 10 μM
UO-31 (renal cancer) = experiment: NCI 60-cell one-dose antiproliferative screen; format: cell-based, human; details: one dose 10 μM
PC-3 (prostate cancer) = experiment: NCI 60-cell one-dose antiproliferative screen; format: cell-based, human; details: one dose 10 μM
DU-145 (prostate cancer) = experiment: NCI 60-cell one-dose antiproliferative screen; format: cell-based, human; details: one dose 10 μM
MCF7 (breast cancer) = experiment: NCI 60-cell one-dose antiproliferative screen; format: cell-based, human; details: one dose 10 μM
[8] = tested on: MDA-MB-231/ATCC (breast cancer); experiment: NCI 60-cell one-dose antiproliferative screen; format: cell-based, human; details: one dose 10 μM
HS 578T (breast cancer) = experiment: NCI 60-cell one-dose antiproliferative screen; format: cell-based, human; details: one dose 10 μM
T-47D (breast cancer) = experiment: NCI 60-cell one-dose antiproliferative screen; format: cell-based, human; details: one dose 10 μM
[9] = tested on: MDA-MB-468 (breast cancer); experiment: NCI 60-cell one-dose antiproliferative screen; format: cell-based, human; details: one dose 10 μM
[10] = tested on: 60 human tumor cell lines; experiment: NCI 60-cell one-dose antiproliferative screen, whole panel; format: cell-based; details: Homo sapiens, 60 cell, read-out: Mean inhibition (mean GI%)

COc1ccc(-c2nnc3ccc(NN=Cc4ccc(C)cc4)nn23)cc1 [Compound 4f, 3-(4-Methoxyphenyl)-6-(2-(4-methylbenzylidene)hydrazinyl)-[1,2,4]triazolo[4,3-b]pyridazine]
GI% (CCRF-CEM (leukemia)): — (— GI% is below 15%)
GI% (RPMI-8226 (leukemia)): — (— GI% is below 15%)
GI% [1]: 66.62%
GI% (EKVX (NSC lung cancer)): 31.76%
GI% (HOP-62 (NSC lung cancer)): 29.57%
GI% (HOP-92 (NSC lung cancer)): 81.11%
GI% [2]: 45.38%
GI% [3]: 49.25%
GI% [4]: — (— GI% is below 15%)
GI% [5]: 48.83%
GI% [6]: — (— GI% is below 15%)
GI% (COLO-205 (colon cancer)): 20.07%
GI% (HCC-2998 (colon cancer)): 20.85%
GI% (HCT-116 (colon cancer)): 21.17%
GI% (HCT-15 (colon cancer)): 50.02%
GI% (HT29 (colon cancer)): 17.40%
GI% (KM12 (colon cancer)): 31.89%
GI% (SW-620 (colon cancer)): — (— GI% is below 15%)
GI% (SF-268 (CNS cancer)): 40.91%
GI% (SF-295 (CNS cancer)): 43.09%
GI% (SF-539 (CNS cancer)): 38.74%
GI% (SNB-19 (CNS cancer)): — (— GI% is below 15%)
GI% (U251 (CNS cancer)): 55.13%
GI% (LOX IMIV (melanoma)): 76.27%
GI% (MALME-3M (melanoma)): — (— GI% is below 15%)
GI% (M14 (melanoma)): 16.52%
GI% (MDA-MB-435 (melanoma)): 35.32%
GI% (SK-MEL-2 (melanoma)): — (— GI% is below 15%)
GI% (SK-MEL-28 (melanoma)): — (— GI% is below 15%)
GI% (UACC-257 (melanoma)): — (— GI% is below 15%)
GI% (UACC-62 (melanoma)): — (— GI% is below 15%)
GI% (IGROV1 (ovarian cancer)): — (— GI% is below 15%)
GI% (OVCAR-3 (ovarian cancer)): 84.42%
GI% (OVCAR-4 (ovarian cancer)): 63.09%
GI% (OVCAR-5 (ovarian cancer)): — (— GI% is below 15%)
GI% (OVCAR-8 (ovarian cancer)): 58.61%
GI% [7]: 74.21%
GI% (SK-OV-3 (ovarian cancer)): 20.16%
GI% (786-0 (renal cancer)): 43.09%
GI% (A498 (renal cancer)): — (— GI% is below 15%)
GI% (ACHN (renal cancer)): 41.02%
GI% (CAKI-1 (renal cancer)): 45.37%
GI% (RXF 393 (renal cancer)): 37.84%
GI% (SN12C (renal cancer)): 23.07%
GI% (TK-10 (renal cancer)): 17.28%
GI% (UO-31 (renal cancer)): 66.50%
GI% (PC-3 (prostate cancer)): 27.83%
GI% (DU-145 (prostate cancer)): 60.93%
GI% (MCF7 (breast cancer)): 42.84%
GI% [8]: 34.65%
GI% (HS 578T (breast cancer)): 70.93%
GI% (T-47D (breast cancer)): 24.01%
GI% [9]: — (— GI% is below 15%)
inhibition at 10 µM [10]: 34.8%
